Test results as given in PubChem BioAssay (NCI).
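All cell lines were grown in 96-well plates and treated with compound for 48 hours. Definition used: TGI = concentration required for complete inhibition of growth.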

Legend:
Experiment in all cases: NCI anticancer screen, dose series, 48 h
SK-MEL-2 melanoma = tested on: SK-MEL-2 melanoma
MDA-N = tested on: MDA-N
SK-MEL-28 melanoma = tested on: SK-MEL-28 melanoma
HCT-116 colon = tested on: HCT-116 colon
U251 CNS = tested on: U251 CNS
NCI/ADR-RES ovarian = tested on: NCI/ADR-RES ovarian
NCI-H460 lung = tested on: NCI-H460 lung
OVCAR-8 ovarian = tested on: OVCAR-8 ovarian
HOP-62 NSCLC = tested on: HOP-62 NSCLC
SF-295 CNS = tested on: SF-295 CNS
MDA-MB-435 = tested on: MDA-MB-435
SF-539 CNS = tested on: SF-539 CNS
HT29 colon = tested on: HT29 colon
SK-OV-3 ovarian = tested on: SK-OV-3 ovarian
T-47D breast = tested on: T-47D breast
SR leukemia = tested on: SR leukemia
HL-60(TB) leukemia = tested on: HL-60(TB) leukemia

Compound	TGI (SK-MEL-2 melanoma)	TGI (MDA-N)	TGI (SK-MEL-28 melanoma)	TGI (HCT-116 colon)	TGI (U251 CNS)	TGI (NCI/ADR-RES ovarian)	TGI (NCI-H460 lung)	TGI (OVCAR-8 ovarian)	TGI (HOP-62 NSCLC)	TGI (SF-295 CNS)	TGI (MDA-MB-435)	TGI (SF-539 CNS)	TGI (HT29 colon)	TGI (SK-OV-3 ovarian)	TGI (T-47D breast)	TGI (SR leukemia)	TGI (HL-60(TB) leukemia)
CC(/C=N\NC(=S)N1CCCCC1)=N/NC(=S)N1CCCCC1	6.36 µM	12.1 µM	18.1 µM	6.19 µM	13 µM	6.9 µM	9.76 µM	16.1 µM	11 µM	14.4 µM	17.5 µM	> 100 µM	62.4 µM	6.08 µM			
CC1(C)OC2C(O)CN3CCS[C@H]3C2O1 (stereo not given in full)	> 100 µM		> 100 µM	> 100 µM	> 100 µM	> 100 µM	> 100 µM	> 100 µM	> 100 µM	> 100 µM	> 100 µM		> 100 µM	> 100 µM	> 100 µM	> 100 µM	> 100 µM
CCc1nc2ccc(N=NN(C)C)cc2[nH]1	> 100 µM	> 100 µM	> 100 µM	> 100 µM	> 100 µM	> 100 µM	> 100 µM	> 100 µM	> 100 µM		> 100 µM		> 100 µM		> 100 µM		
O=C(NCCCN(CCCCN(CCCNC(=O)C(F)(F)F)CCCc1ccccc1)CCCc1ccccc1)C(F)(F)F		3.04 µM	3.16 µM	5.9 µM	3.56 µM	15.5 µM	3.27 µM	3.77 µM		3.3 µM	3.35 µM	3.16 µM	3.23 µM	5.6 µM	3.84 µM		23.9 µM
O=C1/C(=C/c2ccccc2)NC(=S)N1CN1CCOCC1	> 100 µM	> 100 µM	> 100 µM	> 100 µM	> 100 µM	> 100 µM		> 100 µM	> 100 µM	> 100 µM	> 100 µM		> 100 µM	> 100 µM		> 100 µM	
CC(C)(C)c1cc(C(=O)/C=C/C=C/c2ccccc2)cc(C(C)(C)C)c1O	34.5 µM		> 100 µM	44.9 µM	33.5 µM	30.5 µM	31.5 µM	58.5 µM	> 100 µM	> 100 µM	> 70.4 µM	33.6 µM	> 89.9 µM	> 100 µM	> 100 µM	13.4 µM	8.88 µM
CC(C)=CCc1c(O)ccc2ccc(=O)oc12	> 100 µM		> 100 µM	> 100 µM	> 100 µM	> 31.6 µM	> 100 µM	> 100 µM		> 100 µM		> 31.6 µM	> 100 µM	> 100 µM			> 80.6 µM
C#CCN(CC#C)C(=O)C(=O)c1c[nH]c2ccc(OC)cc12			31 µM	36.1 µM	27.6 µM	57.7 µM	29.7 µM	60.5 µM	31.3 µM	32.5 µM	35.4 µM	29.2 µM	25.3 µM	36.5 µM	83.5 µM	23.2 µM	20.5 µM
COc1ccc(-c2nc(SCC(=O)N/N=C/c3ccc(O)c(OC)c3)[nH]c2-c2ccc(OC)cc2)cc1	33.5 µM	52.3 µM	74.8 µM	33.3 µM	40.8 µM	> 100 µM	75.6 µM	> 100 µM	71.7 µM	46.5 µM	> 100 µM	36.5 µM	46.1 µM	> 100 µM	> 100 µM		32.4 µM
CC12CC(C#N)(C#N)C(C#N)(CO1)C(=N)O2 (stereo not given)	> 100 µM	> 100 µM	> 100 µM	> 100 µM	> 100 µM	> 100 µM	> 100 µM	> 100 µM		> 100 µM	> 100 µM	> 100 µM	> 100 µM	> 100 µM	> 100 µM		> 100 µM
COc1cccc2c1C(=O)c1c(O)c3c(c(O)c1C2=O)C[C@@](O)(C(=O)CO)C[C@@H]3OC1CC(N)C(OC)C(C)O1 (stereo not given in full)	0.407 µM	36.2 µM	1.9 µM	> 100 µM	0.441 µM		0.217 µM	1.21 µM	0.354 µM	1.98 µM		0.449 µM	1.66 µM	4.41 µM	1.73 µM	0.364 µM	0.388 µM
CC(C)(C)NC(=O)N1N=C(c2ccccc2)C1c1ccccc1 (stereo not given)		> 100 µM	> 100 µM	52.8 µM	> 100 µM	> 100 µM	> 100 µM	> 100 µM		> 100 µM		41.4 µM	32.2 µM	> 100 µM	> 100 µM		> 100 µM
CSc1nncc2[nH]c(C)nc12	> 100 µM	> 100 µM	> 100 µM	> 100 µM	> 100 µM	> 100 µM		> 100 µM	> 100 µM	> 100 µM	> 100 µM	> 100 µM	> 100 µM	> 100 µM	> 100 µM		> 100 µM
CC#C[P+](c1ccccc1)(c1ccccc1)c1ccccc1	5.75 µM		25 µM	13.3 µM	11.8 µM		19.2 µM	12 µM	17.4 µM	9.15 µM		10.1 µM	12.9 µM	38.5 µM		14.3 µM	13.9 µM
COC(=O)C1C=CN(N(C)C)C2=C1C(=O)c1c(O)cccc1C2=O (stereo not given)	7.81 µM		3.87 µM	5.79 µM	11.8 µM	6.47 µM	3.03 µM	7.4 µM	8.42 µM	3.31 µM			3.61 µM	22.7 µM	6.45 µM		
CC(C)=C1C(=O)C[C@]2(C)C[C@H]3/C(=C(/C)CCC12)CC[C@@]3(C)O (stereo not given in full)	> 50 µM		> 50 µM	> 50 µM	> 50 µM	> 50 µM		> 50 µM	> 50 µM	> 50 µM	> 50 µM	> 50 µM	> 50 µM	> 50 µM	> 50 µM	> 50 µM	28.6 µM
